Measured values taken from patent US6265603A, “Inhibitors of isoprenyl transferase” (Eisai Co., Ltd., priority 1999, dated 2001).

How the values were obtained:
H-ras = experiment: Inhibition of H-ras prenylation/processing in whole cells (H-ras (61 L) transformed NIH3T3 fibroblasts, Western blot); format: cell-based; settings: for IC50: Mus musculus; for IC50 / H-ras processing, % inhibition @ 50: H-ras (61 L) transformed NIH3T3 fibroblasts, 24 h, 50 μM lovastatin as 100% reference; for H-ras processing, % inhibition @ 50: @ 50 [μM]
Experimental: The ability of compounds of the invention to inhibit H-ras farnesylation was determined. H-ras (61 L) transformed NIH3T3 fibroblasts were generously provided by C. Der, Univ. N. Carolina. These fibroblasts were treated for 24 h with 50 μM lovastatin or vehicle control or the indicated concentrations of inhibitor. Lovastatin is an HMG-CoA reductase inhibitor. HMG-CoA reductase is an essential enzyme in the cellular synthesis of the prenyl groups with which ras proteins are modified. The cells were lysed in 1% NP-40, 5 mM Tris-HCl (pH 8.0), 5 mM EDTA, 0.1 mM N-tosyl-L-phenylalanine chloromethyl ketone, 0.1 mM N-tosyl-L-lysine chloromethyl ketone, and 1 mM phenylmethylsulfonyl fluoride. The lysate was centrifuged (15000×g, 5 min.) and the supernatant was used as a cell extract. Total protein was separated by SDS-PAGE in 15% acrylamide gel. Processed ras can be differentiated from non-processed ras by its mobility in polyacrylamide gels. After transfer to IMMOBILON P™ membrane (Millipore), the blots were probed with LA069 mouse monoclonal antibody to H-ras (Quality Biotech). All Western blots were developed using ECL chemiluminescent reagents (Amersham) and the relative amounts of farnesylated and non-farnesylated ras were quantitated using the inhibition obtained by 50 μM lovastatin as 100% reference.
Sub-micromolar concentrations are sufficient to inhibit farnesylation of ras proteins in whole cells.

[1] = system: H-ras (61 L) transformed NIH3T3 fibroblasts; experiment: Inhibition of tumor growth of H-ras (61 L) transformed NIH3T3 xenograft in athymic nude mice; format: in vivo; settings: 100, 50 and 25 mg/kg i.v. daily for 5 days; measured days 7, 10, 14
Experimental: H-ras (61 L) transformed NIH3T3 fibroblasts were grown in Dulbecco's modified Eagle's medium supplemented with 10% heat-inactivated calf serum. 100 U/mL penicillin, 100 μg/mL streptomycin, and 0.75 mg/mL G418 (GIBCO) and incubated at 37° C. in 5% CO2. Cells were harvested from exponential-phase cultures with trypsin-EDTA, centrifuged at 160×g for 5 min, washed once with 10 mL cold Hank's balanced salt solution (HBSS, GIBCO), and resuspended at a concentration of 1×10^6 cells/mL.
Five week old female athymic nude mice were obtained from SLC (3371-8, Kotoummachi, Hamamatsu-shi, Shizuoka 431-11, Japan) and maintained under pathogen-free conditions. The mice were subcutaneously injected in the lateral flank with 1×10^5 H-ras transformed cells/mouse.
Inhibitor compound 1 was suspended in 5% glucose in a total injection volume of 0.2 mL. Three dosage concentrations were prepared, 100, 50 and 25 mg/kg. Compound 1 was intravenously injected daily in the tail vein for 5 consecutive days, starting the day after the implantation (day 0). The control group was injected with vehicle only. Body weight and tumor dimensions were measured at days 7, 10, and 14. Tumor volume was estimated by the following calculation: tumor volume=(0.5)(length×width×width). At day 14, each mouse was euthanized with CO2 (g), and each tumor was excised and weighed. […]

FTase = FTase (Homo sapiens, UniProt P49354+P49356); experiment: In vitro inhibition of FTase-mediated prenylation (recombinant FTase, recombinant H-ras, [3H] farnesylpyrophosphate); format: biochemical; settings: 15 min, 37° C.; 3 μM recombinant H-ras, 440 nM [3H] farnesylpyrophosphate
Experimental: (§1) The ability of the disclosed inhibitor compounds to inhibit FTase was measured according to a published prenylation assay (Moores et al., J. Biol Chem. 266:14603 (1991)). Recombinant FTase with 3 μM recombinant H-ras and 440 nM [^3 H] farnesylpyrophosphate were used were used. The inhibitors were diluted in assay buffer, and each assay mixture was incubated 15 min. at 37° C. Where inhibition of GGTase I was measured, GGTase I with 5 μM recombinant, H-ras (61 L, CAIL) and 1 mM [^3 H] geranylgeranyl diphosphate were used.
(§2) Nanomolar concentrations of the indicated compounds were sufficient to inhibit farnesylation of ras proteins in vitro. For screening candidate compounds useful for the treatment of ras-associated tumors, the FTase assay is preferred. […] Substitutions which confer GGTase I specificity as taught herein also produced potent inhibitors of GGTase I.

GGTase I = GGTase I (Homo sapiens, UniProt P49354+P53609); experiment: In vitro inhibition of GGTase I-mediated prenylation (H-ras (61 L, CAIL), [3H] geranylgeranyl diphosphate); format: biochemical; settings: 5 μM recombinant H-ras (61 L, CAIL), 1 mM [3H] geranylgeranyl diphosphate
Experimental: as §1, §2

Compound	IC50 (H-ras) [nM]	IC50 (FTase) [nM]	IC50 (GGTase I) [nM]	further results
COC(=O)[C@H](CCSC)NC(=O)c1cc(OCC[C@@H](N)CS)ccc1C(C)C [Compound 1]	39			potency within the series (in words) (H-ras; statement in Formulations section, test not specified): the most potent compound of the series; inhibition of tumor growth / tumor volume (FIG. 1) [1]: inhibition of tumor growth
CSCC[C@H](NC(=O)c1ccccc1OC[C@@H](/C=C/[C@@H](N)CS)C(C)C)C(=O)O [Compound 2]		45	1900	
CSCC[C@H](NC(=O)c1cc2ccccc2cc1OC[C@@H](/C=C/[C@@H](N)CS)C(C)C)C(=O)O [Compound 3]		500	1700	
CSCC[C@H](NC(=O)c1cccc(OC[C@@H](/C=C/[C@@H](N)CS)C(C)C)c1)C(=O)O [Compound 4]		30	1900	
CSCCC(NC(=O)c1ccc(OC[C@@H](/C=C/[C@@H](N)CS)C(C)C)cc1)C(=O)O (stereo partly drawn) [Compound 5]		6300	40000	
CSCC[C@H](NC(=O)c1cc2ccccc2cc1OC/C=C/[C@@H](N)CS)C(=O)O [Compound 6]		1300	4200	
CSCC[C@H](NC(=O)c1cccc(OC/C=C/[C@@H](N)CS)c1)C(=O)O [Compound 7]		93	3000	
CSCC[C@H](NC(=O)c1ccc(OC/C=C/[C@@H](N)CS)cc1)C(=O)O [Compound 8]		890	> 100000	
CSCC[C@H](NC(=O)c1cc(OC[C@@H](/C=C/[C@@H](N)CS)C(C)C)ccc1C(C)C)C(=O)O [Compound 9]		22	3800	
CSCC[C@H](NC(=O)c1cc(OCC[C@@H](N)CS)ccc1C(C)C)C(=O)O [Compound 11]		21	390	
CSCC[C@H](NC(=O)c1cc(OCC[C@@H](N)CS)ccc1-c1ccccc1)C(=O)O [Compound 12]		4	38	
CSCC[C@H](NC(=O)c1cc(OC[C@@H](N)CS)ccc1-c1ccccc1)C(=O)O [Compound 14]		15	130	
COC(=O)C(CCSC)NC(=O)c1ccccc1OC[C@@H](/C=C/[C@@H](N)CS)C(C)C (stereo partly drawn) [Compound 15]	4100			
COC(=O)[C@H](CCSC)NC(=O)c1cccc(OC[C@@H](/C=C/[C@@H](N)CS)C(C)C)c1 [Compound 17]	3300			
COC(=O)[C@H](CCSC)NC(=O)c1ccc(OC[C@@H](/C=C/[C@@H](N)CS)C(C)C)cc1 [Compound 18]	> 50000			
COC(=O)[C@H](CCSC)NC(=O)c1cc2ccccc2cc1OC/C=C/[C@@H](N)CS [Compound 19]				H-ras processing, % inhibition @ 50 (H-ras): 46%
COC(=O)C(CCSC)NC(=O)c1cccc(OC/C=C/[C@@H](N)CS)c1 (stereo partly drawn) [Compound 20]				H-ras processing, % inhibition @ 50 (H-ras): 38%
COC(=O)[C@H](CCSC)NC(=O)c1ccc(OC/C=C/[C@@H](N)CS)cc1 [Compound 21]	> 50000			
COC(=O)[C@H](CCSC)NC(=O)c1cc(OC[C@@H](/C=C/[C@@H](N)CS)C(C)C)ccc1C(C)C [Compound 22]	122			
COC(=O)[C@H](CCSC)NC(=O)c1cc(OC[C@@H](/C=C/[C@@H](N)CS)C(C)C)ccc1-c1ccccc1 [Compound 23]	31000			
COC(=O)[C@H](CCSC)NC(=O)c1cc(OCC[C@@H](N)CS)ccc1-c1ccccc1 [Compound 24]	298			
COC(=O)[C@H](CCSC)NC(=O)c1cc(OC[C@@H](N)CS)ccc1C(C)C [Compound 25]	3100			
COC(=O)[C@H](CCSC)NC(=O)c1cc(OC[C@@H](N)CS)ccc1-c1ccccc1 [Compound 26]	3200			
COC(=O)[C@H](CCSC)NC(=O)c1cc(COC[C@@H](N)CS)ccc1C(C)C [Compound 27]	49			
COC(=O)[C@H](CCSC)N(C)Cc1cc(OCC[C@@H](N)CS)ccc1C(C)C [Compound 28]				H-ras processing, % inhibition @ 50 (H-ras): 42%
COC(=O)[C@H](CCSC)NC(=O)c1cc(OCC[C@@H](C)CS)ccc1C(C)C [Compound 29]	> 50000			
CSCC[C@H](NC(=O)c1cc(COC[C@@H](N)CS)ccc1C(C)C)C(=O)O [Compound 30]		15	930	
CSCC[C@@H](C(=O)O)N(C)Cc1cc(OCC[C@@H](N)CS)ccc1C(C)C [Compound 31]		350	8900	
CSCC[C@H](NC(=O)c1cc(OCC[C@@H](C)CS)ccc1C(C)C)C(=O)O [Compound 32]		470	100000	
